Data reported in publication PMC10817945, “Design of a novel analogue peptide with potent antibiofilm activities against Staphylococcus aureus based upon a sapecin B-derived peptide” (Scientific Reports, 2024).
≈ marks a conversion by molar mass, not a printed value. Read-outs that look alike come from different tables or passages of the source. Non-standard residues stand in square brackets, D forms with d. Residues, ends and D or L forms follow the SMILES beside them.

Columns and labels:
[1] = system: clinical Salmonella isolates; parameters: method as in PMID 34361810; settings: cited from earlier work
S. aureus strains = assay type: cell-based, Staphylococcus aureus; settings: for inhibition of biofilm formation: strains, 24 h
Method: To investigate the inhibitory effect of KLK and mKLK peptides on bacterial surface attachment and biofilm formation, the bacterial suspension in TSB with a concentration of 10^7 CFU/ml was prepared from overnight culture. An aliquot of 100 μl of the bacterial suspension was added to wells of 96-well plates containing 100 μl of the peptides solution with concentrations of 1×, 1/2× and 1/4× MIC, resulting in the final peptides concentrations of 1/2×, 1/4× and 1/8× MIC. To investigate the inhibitory effect of the peptides on surface attachment the incubation was performed at 37 °C for 2 h and to evaluate their inhibitory activity on biofilm formation the incubation was performed at 37 °C for 24 h. The wells containing only TSB medium were used as negative controls. After incubation, the contents of the wells were removed and washed three times with PBS and the wells were stained with 200 μl of 0.1% crystal violet for 20 min. The plates were washed again and excess dye was removed. A volume of 200 μl of 95% ethanol was added to each well for 20 min and absorbance was measured at 570 nm by a microplate reader.

S. aureus isolates = assay type: cell-based, Staphylococcus aureus
Method: Minimum inhibitory concentrations (MIC) of KLK, mKLK, and vancomycin were determined using microdilution broth assay according to clinical and laboratory standards institute (CLSI) guidelines with some modifications. Briefly, overnight cultures were diluted in Muller-Hinton broth (MHB; Merck, Germany) to achieve a final density of 5 × 10^5 CFU/ml. A volume of 100 μl of bacterial suspension was added to wells of sterile 96-well plates containing 100 μl of two-fold peptide dilutions, ranging from 0.25 to 256 µg/ml. Vancomycin was used as a positive control in this assay. […] MBC was determined by removing samples from wells with no visible growth, serially diluting, and plating on Mueller Hinton (MH) agar plates for CFU counting.

in vitro = settings: human
Method: To quantitatively investigate the cytotoxicity of mKLK and KLK peptides, the 2,3-bis-(2-methoxy-4-nitro-5-sulfophenyl)-2H-tetrazolium-5-carboxanilide (XTT) (cell proliferation kit II, Roche, Germany) assay was performed on human embryonic kidney (HEK)-293 cell line, as described previously[47], The HEK-293 cells were grown in DMEM supplemented with 4 µM glutamine, 10% fetal bovine serum (FBS), and 100 units/ml penicillin/streptomycin at 37 °C in a 5% CO2 and 95% air atmosphere. Following incubation for 24 h, the culture medium was discarded and fresh medium containing different concentrations of KLK and mKLK peptides (1.56, 3.12, 6.25, 12.5, and 25 µM) was added and incubated at 37 °C for 20 min. Then, the culture medium was discarded and 100 µl of XTT reagent mixture was added and incubated for 4 h. Finally, the absorbance was measured at 570 nm using an ELISA plate reader (Anthos 2020, England). The percentage of cell inhibition was calculated using the following formula: % Cell inhibition = Test Abs/Control Abs × 100.

S. aureus ATCC 25923 = assay type: cell-based, Staphylococcus aureus; settings: ATCC 25923, 2 h
Method: To test the retinue of antimicrobial activity of mKLK in human serum, MIC of the serum-treated peptide was determined against S. aureus ATCC 25923 using microdilution broth assay. […] The MIC was determined as the lowest concentration of peptide at which no visible growth is seen[49].

[2] = 50% human serum, 37 °C, 2 h, reverse-phase HPLC
Method: To assess the serum stability of mKLK peptide to proteolytic degradation, the D-form mKLK peptide (0.5 mg) was dissolved in 4 ml of 50% (v/v) of serum from male healthy donors in PBS and incubated at 37 °C for 0, 60, and 120 min. After each incubation time, the samples were analyzed by reverse-phase HPLC on a Jupiter proteo C18 column (250 × 4.6 mm) and monitored with a fluorescence detector (wavelength: 560 nm). Analysis of the samples was performed over a linear gradient of 10–60% acetonitrile containing 0.08% trifluoroacetic acid for 50 min at a flow rate of 1 ml/min[48].

S. aureus = assay: Effect of 1/2× MIC on bacterial growth; assay type: cell-based, Staphylococcus aureus
From the text: To ensure that the antibiofilm property of mKLK is independent of its ability to inhibit bacterial growth, the effect of 1/2× MIC on bacterial growth was examined.

[3] = ATCC25923, 1/2MIC, control 2.302±0.006
[4] = ATCC25923, 1/4MIC, control 2.302±0.006
[5] = ATCC25923, 1/8MIC, control 2.302±0.006
[6] = MRSA-1, 1/2MIC, control 2.115±0.01
[7] = MRSA-1, 1/4MIC, control 2.115±0.01
[8] = MRSA-1, 1/8MIC, control 2.115±0.01
[9] = MRSA-2, 1/2MIC, control 2.354±0.04
[10] = MRSA-2, 1/4MIC, control 2.354±0.04
[11] = MRSA-2, 1/8MIC, control 2.354±0.04
[12] = MRSA-3, 1/2MIC, control 1.541±0.02
[13] = MRSA-3, 1/4MIC, control 1.541±0.02
[14] = MRSA-3, 1/8MIC, control 1.541±0.02
[15] = MSSA-1, 1/2MIC, control 2.190±0.01
[16] = MSSA-1, 1/4MIC, control 2.190±0.01
[17] = MSSA-1, 1/8MIC, control 2.190±0.01
[18] = MSSA-2, 1/2MIC, control 1.802±0.02
[19] = MSSA-2, 1/4MIC, control 1.802±0.02
[20] = MSSA-2, 1/8MIC, control 1.802±0.02

Compound: CC(C)C[C@@H](NC(=O)[C@H](N)CCCCN)C(=O)N[C@H](CCCCN)C(=O)N[C@H](CC(C)C)C(=O)N[C@H](CC(C)C)C(=O)N[C@H](CC(C)C)C(=O)N[C@H](CC(C)C)C(=O)N[C@H](CC(C)C)C(=O)N[C@H](CCCCN)C(=O)N[C@H](CC(C)C)C(=O)N[C@H](CCCCN)C(N)=O [KLK] (H-[dK][dL][dK][dL][dL][dL][dL][dL][dK][dL][dK]-NH2; N-terminus assumed)
- MIC [1]: > 256 µM
- crystal violet absorbance at 570 nm, biofilm formation, Mean±SD (S. aureus strains; [3]): 1.654±0.006
- crystal violet absorbance at 570 nm, biofilm formation, Mean±SD (S. aureus strains; [4]): 2.069±0.04
- crystal violet absorbance at 570 nm, biofilm formation, Mean±SD (S. aureus strains; [5]): 2.113±0.01
- crystal violet absorbance at 570 nm, biofilm formation, Mean±SD (S. aureus strains; [6]): 1.606±0.01
- crystal violet absorbance at 570 nm, biofilm formation, Mean±SD (S. aureus strains; [7]): 1.924±0.004
- crystal violet absorbance at 570 nm, biofilm formation, Mean±SD (S. aureus strains; [8]): 1.947±0.05
- crystal violet absorbance at 570 nm, biofilm formation, Mean±SD (S. aureus strains; [9]): 1.861±0.007
- crystal violet absorbance at 570 nm, biofilm formation, Mean±SD (S. aureus strains; [10]): 2.128±0.01
- crystal violet absorbance at 570 nm, biofilm formation, Mean±SD (S. aureus strains; [11]): 2.187±0.002
- crystal violet absorbance at 570 nm, biofilm formation, Mean±SD (S. aureus strains; [12]): 0.204±0.03
- crystal violet absorbance at 570 nm, biofilm formation, Mean±SD (S. aureus strains; [13]): 1.739±0.002
- crystal violet absorbance at 570 nm, biofilm formation, Mean±SD (S. aureus strains; [14]): 1.441±0.04
- crystal violet absorbance at 570 nm, biofilm formation, Mean±SD (S. aureus strains; [15]): 1.609±0.03
- crystal violet absorbance at 570 nm, biofilm formation, Mean±SD (S. aureus strains; [16]): 1.971±0.10
- crystal violet absorbance at 570 nm, biofilm formation, Mean±SD (S. aureus strains; [17]): 2.007±0.13
- crystal violet absorbance at 570 nm, biofilm formation, Mean±SD (S. aureus strains; [18]): 1.261±0.01
- crystal violet absorbance at 570 nm, biofilm formation, Mean±SD (S. aureus strains; [19]): 1.627±0.01
- crystal violet absorbance at 570 nm, biofilm formation, Mean±SD (S. aureus strains; [20]): 1.633±0.04
- inhibition of biofilm formation (S. aureus strains; 2): 48-66%
- inhibition of biofilm formation (S. aureus strains; 4): 9-11%
- inhibition of biofilm formation (S. aureus strains; 8): 6-9%
- MBC (S. aureus isolates; ATCC25923): 4 µg/mL (≈ 3.03 µM)
- MBC (S. aureus isolates; MRSA-1): 8 µg/mL (≈ 6.05 µM)
- MBC (S. aureus isolates; MRSA-2): 8 µg/mL (≈ 6.05 µM)
- MBC (S. aureus isolates; MRSA-3): 8 µg/mL (≈ 6.05 µM)
- MBC (S. aureus isolates; MSSA-1): 4 µg/mL (≈ 3.03 µM)
- MBC (S. aureus isolates; MSSA-2): 4 µg/mL (≈ 3.03 µM)
- IC50 at 20 min (in vitro): 28.8 µM

Compound: CC(C)C[C@@H](NC(=O)[C@H](N)Cc1c[nH]c2ccccc12)C(=O)N[C@H](Cc1c[nH]c2ccccc12)C(=O)N[C@H](C)C(=O)N[C@H](CC(C)C)C(=O)N[C@H](CC(C)C)C(=O)N[C@H](CCCCN)C(=O)N[C@H](CC(C)C)C(=O)N[C@H](CC(C)C)C(=O)N[C@H](CCCCN)C(=O)N[C@H](CC(C)C)C(=O)N[C@H](CCCCN)C(N)=O [mKLK] (H-[dW][dL][dW][dA][dL][dL][dK][dL][dL][dK][dL][dK]-NH2; N-terminus assumed)
- MIC after serum treatment (S. aureus ATCC 25923): 4 µg/mL (≈ 2.62 µM)
- crystal violet absorbance at 570 nm, biofilm formation, Mean±SD (S. aureus strains; [3]): 0.207±0.02
- crystal violet absorbance at 570 nm, biofilm formation, Mean±SD (S. aureus strains; [4]): 0.257±0.05
- crystal violet absorbance at 570 nm, biofilm formation, Mean±SD (S. aureus strains; [5]): 0.678±0.01
- crystal violet absorbance at 570 nm, biofilm formation, Mean±SD (S. aureus strains; [6]): 0.489±0.007
- crystal violet absorbance at 570 nm, biofilm formation, Mean±SD (S. aureus strains; [7]): 0.572±0.01
- crystal violet absorbance at 570 nm, biofilm formation, Mean±SD (S. aureus strains; [8]): 0.936±0.07
- crystal violet absorbance at 570 nm, biofilm formation, Mean±SD (S. aureus strains; [9]): 0.444±0.008
- crystal violet absorbance at 570 nm, biofilm formation, Mean±SD (S. aureus strains; [10]): 0.624±0.03
- crystal violet absorbance at 570 nm, biofilm formation, Mean±SD (S. aureus strains; [11]): 0.923±0.07
- crystal violet absorbance at 570 nm, biofilm formation, Mean±SD (S. aureus strains; [12]): 1.405±0.01
- crystal violet absorbance at 570 nm, biofilm formation, Mean±SD (S. aureus strains; [13]): 0.322±0.02
- crystal violet absorbance at 570 nm, biofilm formation, Mean±SD (S. aureus strains; [14]): 0.519±0.006
- crystal violet absorbance at 570 nm, biofilm formation, Mean±SD (S. aureus strains; [15]): 0.236±0.03
- crystal violet absorbance at 570 nm, biofilm formation, Mean±SD (S. aureus strains; [16]): 0.407±0.007
- crystal violet absorbance at 570 nm, biofilm formation, Mean±SD (S. aureus strains; [17]): 0.622±0.02
- crystal violet absorbance at 570 nm, biofilm formation, Mean±SD (S. aureus strains; [18]): 0.183±0.01
- crystal violet absorbance at 570 nm, biofilm formation, Mean±SD (S. aureus strains; [19]): 0.225±0.01
- crystal violet absorbance at 570 nm, biofilm formation, Mean±SD (S. aureus strains; [20]): 0.558±0.05
- inhibition of biofilm formation (S. aureus strains; 2): 80-91%
- inhibition of biofilm formation (S. aureus strains; 4): 76-89%
- inhibition of biofilm formation (S. aureus strains; 8): 63-73%
- percentage of the peptide remaining [2]: 79%
- MBC (S. aureus isolates; ATCC25923): 4 µg/mL (≈ 2.62 µM)
- MBC (S. aureus isolates; MRSA-1): 8 µg/mL (≈ 5.25 µM)
- MBC (S. aureus isolates; MRSA-2): 8 µg/mL (≈ 5.25 µM)
- MBC (S. aureus isolates; MRSA-3): 8 µg/mL (≈ 5.25 µM)
- MBC (S. aureus isolates; MSSA-1): 4 µg/mL (≈ 2.62 µM)
- MBC (S. aureus isolates; MSSA-2): 4 µg/mL (≈ 2.62 µM)
- effect on bacterial growth (S. aureus): did not affect the bacterial growth
